Literature values in patent publication US11058672B2, “Pharmaceutical compositions and methods for producing low impurity concentrations of the same” (Chiesi Farmaceutici S.p.A., priority 2008, dated 2021).

## CCCC(=O)OCOC(=O)C1=C(C)NC(C)=C(C(=O)OC)C1c1cccc(Cl)c1Cl (stereo not shown) [Clevidipine, butyroxymethyl methyl 4-(2′,3′-dichlorophenyl)-1,4-dihydro-2,6-dimethyl-3,5-pyridinedicarboxylate]
  solubility in water: practically insoluble
